# Experimental data from publication PMC3857224, “Inhibition of DNA Glycosylases via Small Molecule Purine Analogs” (PLoS ONE, 2013).
# Key:
# NEIL1 [1] = target: T1, NEIL1 (Homo sapiens, UniProt Q96FI4); assay: qHTS fluorogenic glycosylase/AP lyase assay, 1536-well, Sp/Gh substrate; format: biochemical; conditions: 5 concentrations
# T1 construct: made in house
# Description: The fluorogenic assay was miniaturized to 4 µL in 1536-well black solid plates by optimization of the enzyme and Sp/Gh substrate concentrations. Briefly, 3 µL of 25 nM NEIL1 were dispensed into each well of a 1536-well plate (except buffer in columns 3 and 4 as a negative control). Compounds (DMSO solutions) and control (DMSO only) (23 nL) were transferred to the plate via Kalypsys pintool. The plate was incubated for 15 min at room temperature, and then 1 µL of the Sp/Gh-containing DNA substrate (75 nM final concentration) was added to start the reaction. The plate was immediately transferred into the ViewLux reader for the kinetic fluorescence read. Initial rate data were normalized against uninhibited and no-enzyme controls and the resulting percent activities as a function of compound concentration were fitted using the Hill equation.
# Having established the general principle for a glycosylase screening assay, further assay development was undertaken to enable HTS in which the reaction volumes were reduced by 5-fold to a total of 4 µL. Initially, the library of pharmacologically active compounds (LOPAC^1280) was screened for inhibitors of NEIL1 as a determination of the feasibility of this high-throughput method. […] All compounds were screened at 5 different concentrations that allowed for the initial estimation of inhibitory potency (IC50) values, as well as an evaluation of the shape of the response curves. In addition to the anticipated inhibitors (known DNA intercalators, such as ellipticine (IC50 = 2 µM)) and other small molecules that have been previously established to be promiscuous inhibitors (such as aurintricarboxylic acid (IC50<1 µM)), one interesting hit from this screen was CGP-74514A (NCGC ID is NCGC00015229) (Figure 5A). CGP-74514A is a known small molecule inhibitor of Cdk1 in which the structure of this molecule is based on a purine ring backbone.
# NEIL1 [2] = target: T1, NEIL1; assay: gel-based incision assay of oligodeoxynucleotides containing site-specific base lesions; format: biochemical; conditions: polyacrylamide gel, reaction quenched at 20 min
# Description: The 384-well fluorogenic assay was carried out in a 20 µL reaction mixture in 20 mM Tris-HCl pH 8.0, 100 mM KCl, and 0.1% BSA, with 5 nM active enzyme and 50 nM substrate. Possible inhibitors were incubated with the enzyme for at least 5 min at room temperature in a black, low-volume 384-well plate before addition of an equal volume of substrate to start the reaction. The plates were spun for 30 s at 1000 rcf to remove bubbles. The reactions were incubated at 37°C and fluorescence data collected on an Infinite M200 (Tecan, Mannedorf, Switzerland) equipped with standard optics (excitation filter 525 nm, and emission filter 598 nm). For the gel-based assay, reactions were initiated as described for the fluorogenic assay, but quenched with 20 µL 95% formamide at 20 min. The products were separated by electrophoresis through a 15% polyacrylamide gel containing 8 M urea and visualized by a Typhoon scanner (GE Life Sciences, Piscataway, NJ). The fraction of cleaved product was measured using ImageQuant software and analyzed using GraphPad Prism 6. […]
# NEIL1-depleted cells = tested on: NEIL1-depleted cells; set-up: method as in PMID 21131780; conditions: minimally toxic doses, siRNA NEIL1 depletion; cited from earlier work
# NEIL1 [3] = target: T1, NEIL1; assay: NEIL1 excision of FapyAde and FapyGua from γ-irradiated calf thymus DNA by GC-MS/MS; format: biochemical; conditions: 10 µL of 2 mM inhibitor in DMSO, 1 h 37°C
# Description: The enzymatic activity of NEIL1 was measured using gas chromatography/isotope-dilution tandem mass spectrometry (GC-MS/MS) and calf thymus DNA samples γ-irradiated at 20 Gy as described, [30]. Aliquots of FapyAde-^13C,^15N2 and FapyGua-^13C,^15N2 were added as internal standards to 50 µg of DNA samples. After drying in a SpeedVac, DNA samples were dissolved in 50 µL of an incubation buffer consisting of 50 mM phosphate buffer (pH 7.4), 100 mM KCl, 1 mM EDTA, and 0.1 mM dithiothreitol, and then incubated with 2 µg NEIL1 for 1 h at 37°C without any inhibitor, DMSO alone, or with 10 µL of an inhibitor solution in DMSO (2 mM). After incubation, 150 µL of cold ethanol was added. The samples were kept at −20°C for 1 h and then centrifuged with 14,000 g for 30 min at 4°C. The supernatant fractions were separated and ethanol removed in a SpeedVac under vacuum. The samples were then frozen in liquid nitrogen and lyophilized overnight. To fully remove DMSO that would interfere with GC-MS/MS analysis, 500 µL water were added to the samples followed by lyophilization overnight. This procedure was repeated twice. Dried samples were derivatized and analyzed by GC-MS/MS as described, [30]. For each data point, three independently prepared samples were used.
# Although Gh and Sp are excellent substrates for NEIL1, these are likely not to be the biologically relevant substrates. Thus, to determine if the compounds that were identified above were effective in the inhibition of NEIL1 against its biologically relevant substrates FapyAde and FapyGua, [6], γ-irradiated calf thymus DNA was used as a substrate. The excision by NEIL1 of these substrates from DNA was measured by GC-MS/MS with isotope-dilution. Figure 8 illustrates the excision of FapyAde and FapyGua by NEIL1 from γ-irradiated calf thymus DNA in the absence or presence of inhibitors. […] Some inhibition by DMSO alone was also observed when compared with excision by NEIL1 alone (p = 0.01). However, when compared to DMSO, the inhibitions by P2, P6, P7 and P8 were highly significant (p<0.005). […] A p-value<0.05 was assumed to correspond to statistical significance.
# T1 sequence (Q96FI4 whole entry): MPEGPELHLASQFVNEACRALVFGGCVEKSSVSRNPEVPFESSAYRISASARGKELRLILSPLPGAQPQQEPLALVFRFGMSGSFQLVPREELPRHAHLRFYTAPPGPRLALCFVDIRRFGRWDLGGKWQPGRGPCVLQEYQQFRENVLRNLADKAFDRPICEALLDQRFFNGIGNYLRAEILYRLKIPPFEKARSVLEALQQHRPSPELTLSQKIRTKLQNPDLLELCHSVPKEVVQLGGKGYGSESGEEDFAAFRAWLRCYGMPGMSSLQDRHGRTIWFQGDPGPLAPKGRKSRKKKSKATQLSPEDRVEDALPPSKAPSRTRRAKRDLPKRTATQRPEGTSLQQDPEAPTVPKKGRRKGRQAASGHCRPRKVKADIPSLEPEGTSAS
Compound,IC50 (NEIL1 [1]) [µM],IC50 (NEIL1 [2]) [µM],inhibition of NEIL1 excision of FapyAde and FapyGua (NEIL1 [3]),increased cytotoxicity in NEIL1-depleted cells (NEIL1-depleted cells) [fold]
N#Cc1nc(Nc2cc(F)cc(F)c2)c2ncn(CCCN3CCCC3)c2n1 [Purine P5],7.9,> 50,–,–
Cc1ccc(NC(=O)C2CCCN(c3ncnc4c3nc3n4CCCCC3)C2)cc1Cl (stereo not shown) [Purine P22],25.1,> 50,–,–
O=C(C1CCCN(c2ncnc3c2nc2n3CCCCC2)C1)N1CCN(c2cccc(Cl)c2)CC1 (stereo not shown) [Purine P17],15.8,> 50,–,–
"Cc1ccc2nc(N)[nH]c(=O)c2c1Sc1ccncc1 [NOL, nolatrexed]",–,–,–,5
Nc1ncnc2c1ncn2[C@@H]1O[C@H](CNCc2cccc(C#Cc3ccccc3)c2)[C@@H](O)[C@H]1O [Purine P14],12.6,> 50,–,–
C=CC(=O)N1CCCC(Nc2nc(Nc3ccc(N(C)C(=O)CC)cc3C)nc3nc[nH]c23)C1 (stereo not shown) [Purine P12],11.2,> 20,–,–
CC(C)CNc1ncnc2c1ncn2[C@H]1CN(Cc2ccc(-c3ccccc3)cc2)C[C@@H](CO)O1 [Purine P15],14.1,> 50,–,–
N#Cc1nc(Nc2cc(F)cc(F)c2)c2ncn(CCN3CCCC3)c2n1 [Purine P1],3.6,> 50,–,–
"Cc1nc2ccc(CN(C)c3ccc(C(=O)N[C@@H](CCC(=O)O)C(=O)O)s3)cc2c(=O)[nH]1 [RTX, raltitrexed]",–,–,–,9
Cc1cc(/C=C/C#N)cc(C)c1Nc1nc(Nc2ccc3n[nH]nc3c2)c2[nH]cnc2n1 [Purine P18],17.8,> 50,–,–
CN(C)CCNc1ncnc2c1ncn2[C@H]1CN(Cc2ccc(-c3ccccc3)cc2)C[C@@H](CO)O1 [Purine P16],15.8,> 50,–,–
Cc1cc(C)c(CN2CCN(C(=O)Cn3cnc4c(NCc5ccccc5)ncnc43)CC2)c(C)c1 [Purine P25],31.6,> 20,–,–
CC(C)n1cnc2c(N(C)c3ccccc3)nc(N(CCN(C)C)Cc3ccccc3)nc21 [Purine P13],12.6,> 50,–,–
"CN(Cc1cnc2nc(N)nc(N)c2n1)c1ccc(C(=O)N[C@@H](CCC(=O)O)C(=O)O)cc1 [MTX, methotrexate]",–,–,–,10
O=C(C1CCN(c2ncnc3c2nc2n3CCCCC2)CC1)N1CCN(c2cccc(Cl)c2)CC1 [Purine P19],20,> 20,no inhibition,–
O=C(OCC1OC(n2cnc3c(N(C(=O)c4ccccc4)C(=O)c4ccccc4)ncnc32)C(O)C1F)c1ccccc1 (stereo not shown) [Purine P3],3.2,> 50,–,–
"Nc1nc(N)c2nc(CNc3ccc(C(=O)N[C@@H](CCC(=O)O)C(=O)O)cc3)cnc2n1 [AMT, aminopterin]",–,–,–,7
CCNc1nc(C#N)nc2c1ncn2-c1cccc(Cl)c1 [Purine P10],10,> 50,–,–
Cc1ccc(C(=O)Nc2cccc(C(F)(F)F)c2)cc1Nc1ncnc2nc[nH]c12 [Purine P20],22.4,> 50,–,–

# Second part, led by results:
IC50 (NEIL1 [1]) [µM],IC50 (NEIL1 [2]) [µM],inhibition of NEIL1 excision of FapyAde and FapyGua (NEIL1 [3]),Compound,increased cytotoxicity in NEIL1-depleted cells (NEIL1-depleted cells) [fold]
7.9,> 50,–,CC(C)n1cnc2c(NCc3ccccc3)nc(NCc3ccccc3)nc21 [Purine P33],–
< 1,–,–,"O=C(O)C1=CC(=C(c2ccc(O)c(C(=O)O)c2)c2ccc(O)c(C(=O)O)c2)C=CC1=O [aurintricarboxylic acid, reference compound]",–
7.1,> 50,–,Cc1ccccc1CN1CCC(CNC(=O)C2CCCN(c3ncnc4c3nc3n4CCCCC3)C2)CC1 (stereo not shown) [Purine P31],–
10,> 50,–,COc1ccccc1CNC(=O)C1CCN(c2ncnc3c2nc2n3CCCCC2)CC1 [Purine P37],–
1.8,> 50,–,CNC(=O)[C@H]1O[C@H](n2cnc3c(NCc4cccc(I)c4)ncnc32)[C@@H](O)[C@@H]1O [Purine P30],–
31.6,> 20,–,c1ccc(COc2ccc(Nc3ncnc4nc[nH]c34)cc2)cc1 [Purine P26],–
0.3,> 50,–,OC[C@@H]1CN(Cc2ccccc2)C[C@H](n2cnc3c(N4CCN(c5ccccc5)CC4)ncnc32)O1 [Purine P38],–
0.8,> 50,–,CCOCCCNc1ncnc2c1nc1n2CCCC1 [Purine P42],–
0.8,> 50,–,O=C(C1CCCN(c2ncnc3c2nc2n3CCCCC2)C1)N1CCN(c2ccc(F)cc2)CC1 (stereo not shown) [Purine P41],–
11.2,> 50,–,COc1ccc2[nH]cc(CCNC(=O)/C=C/[C@H]3O[C@@H](n4cnc5c(NC(=O)c6ccccc6)ncnc54)[C@H](O)[C@@H]3O)c2c1 [Purine P35],–
0.6,> 50,–,Cc1cccc(OCCSc2nc3c([nH]2)c(=N)ncn3Cc2ccccc2)c1 [Purine P39],–
7.1,19.3,–,CC(C)[C@H](CO)N(Cc1cccc(F)c1)c1nc(Nc2cccc(Cl)c2)c2ncn(C(C)C)c2n1 [Purine P32],–
0.7,> 20,–,CCc1cccc(NC(=O)C2CCCN(c3ncnc4c3nc3n4CCCCC3)C2)c1 (stereo not shown) [Purine P28],–
15.5,> 50,–,Nc1nc(N)c2[nH]c(-c3ccccc3)nc2n1 [Purine P36],–
0.6,> 50,–,CC(=O)c1ccc(N2CCN(C(=O)C3CCCN(c4ncnc5c4nc4n5CCCCC4)C3)CC2)cc1 (stereo not shown) [Purine P27],–
0.9,> 50,–,CC(=O)OC[C@@H]1CN(Cc2ccccc2)C[C@H](n2cnc3c(NCc4ccc(F)cc4)ncnc32)O1 [Purine P29],–
0.6,> 50,–,COc1ccc(CNc2nc(NCc3ccc(OC)cc3)c3[nH]cnc3n2)cc1 [Purine P40],–
10,> 50,–,COc1cccc(-c2cc(CNC(=O)[C@H]3O[C@@H](n4cnc5c(N)ncnc54)[C@H](O)[C@@H]3O)no2)c1 [Purine P34],–
